Data taken from ChEMBL document CHEMBL1221290, “Novel imidazobenzazepine derivatives as dual H1/5-HT2A antagonists for the treatment of sleep disorders” (Bioorg Med Chem Lett, 2010).

Assays:
[1] = molecular target: 5-hydroxytryptamine receptor 2B (Homo sapiens, UniProt P41595); assay: Antagonist activity at human 5HT2B receptor expressed in human SHSY5Y cells by FLPR assay; assay type: functional, cell-based, SH-SY5Y
[2] = molecular target: 5-hydroxytryptamine receptor 2A (Homo sapiens, UniProt P28223); assay: Antagonist activity at human 5HT2A receptor expressed in HEK cells assessed as intracellular calcium luminescence by aequorin assay; assay type: functional, cell-based, HEK293
[3] = molecular target: T1, 5-hydroxytryptamine receptor 2C (Homo sapiens, UniProt P28335); assay: Antagonist activity at human 5HT2C receptor expressed in human SHSY5Y cells by FLPR assay; assay type: functional, cell-based, SH-SY5Y; details: for pKi: sh-sy5y
T1 sequence (P28335 whole entry): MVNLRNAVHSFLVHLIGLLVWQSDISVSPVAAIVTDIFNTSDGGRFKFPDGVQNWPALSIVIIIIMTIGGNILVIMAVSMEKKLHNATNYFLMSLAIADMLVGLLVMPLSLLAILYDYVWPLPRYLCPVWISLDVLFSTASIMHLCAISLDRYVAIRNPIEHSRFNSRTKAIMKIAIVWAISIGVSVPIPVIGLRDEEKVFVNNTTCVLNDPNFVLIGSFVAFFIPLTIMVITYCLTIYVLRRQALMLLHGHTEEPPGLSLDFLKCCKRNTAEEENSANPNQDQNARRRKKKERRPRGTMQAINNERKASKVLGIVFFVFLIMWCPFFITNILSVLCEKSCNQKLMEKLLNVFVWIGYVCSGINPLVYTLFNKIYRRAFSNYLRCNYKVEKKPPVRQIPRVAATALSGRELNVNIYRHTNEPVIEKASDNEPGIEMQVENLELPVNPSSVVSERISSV

Histamine H1 receptor = Histamine H1 receptor (Homo sapiens, UniProt P35367); assay: Antagonist activity at human recombinant histamine H1 receptor expressed in CHO cells by FLPR assay; assay type: functional, cell-based
[4] = AUC (0 to 8 hrs) ratio of drug level in brain to blood in rat at 1 mg/kg, po; assay type: ADME, organism-based; design: dose 1 mg/kg, route oral; details: read-out: Ratio AUC
[5] = Volume of distribution at steady state in rat at 0.5 mg/kg, iv and 1 mg/kg, po; assay type: ADME, organism-based; details: in vivo, read-out: Vdss
[6] = Oral bioavailability in rat at 1 mg/kg; assay type: ADME, organism-based; details: in vivo
[7] = Fraction unbound in rat blood; assay type: ADME, tissue-based
[8] = Fraction unbound in rat brain; assay type: ADME, tissue-based
[9] = Half life in rat at 0.5 mg/kg, iv and 1 mg/kg, po; assay type: ADME, organism-based; details: in vivo
[10] = Blood clearance in rat at 0.5 mg/kg, iv and 1 mg/kg, po; assay type: ADME, organism-based
[11] = Oral bioavailability in rat at 3 mg/kg; assay type: ADME, organism-based; details: in vivo
[12] = Volume of distribution at steady state in rat at 1 mg/kg, iv and 3 mg/kg, po; assay type: ADME, organism-based; details: in vivo, read-out: Vdss
[13] = Half life in rat at 1 mg/kg, iv and 3 mg/kg, po; assay type: ADME, organism-based; details: in vivo
[14] = Blood clearance in rat at 1 mg/kg, iv and 3 mg/kg, po; assay type: ADME, organism-based
[15] = AUC (0 to 8 hrs) ratio of drug level in brain to blood in rat at 3 mg/kg, po; assay type: ADME, organism-based; design: dose 3 mg/kg, route oral; details: read-out: Ratio AUC
[16] = molecular target: T2, Alpha-1A adrenergic receptor (Homo sapiens, UniProt P35348); assay: Antagonist activity at human adrenergic alpha1A receptor assessed as intracellular calcium luminescence by cell based aequorin assay; assay type: functional
T2 sequence (P35348 whole entry): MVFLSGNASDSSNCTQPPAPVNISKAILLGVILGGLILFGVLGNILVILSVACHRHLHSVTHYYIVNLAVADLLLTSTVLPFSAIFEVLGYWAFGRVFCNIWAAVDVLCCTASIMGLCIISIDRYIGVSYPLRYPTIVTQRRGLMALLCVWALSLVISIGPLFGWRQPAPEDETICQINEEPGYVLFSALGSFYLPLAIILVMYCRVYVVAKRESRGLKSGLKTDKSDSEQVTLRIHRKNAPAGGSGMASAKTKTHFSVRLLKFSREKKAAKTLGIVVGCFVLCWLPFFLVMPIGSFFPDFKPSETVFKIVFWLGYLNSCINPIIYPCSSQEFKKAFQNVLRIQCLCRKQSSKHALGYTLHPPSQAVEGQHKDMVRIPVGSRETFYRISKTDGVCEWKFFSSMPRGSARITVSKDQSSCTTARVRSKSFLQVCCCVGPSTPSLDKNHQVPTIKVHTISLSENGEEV

[17] = molecular target: T3, Alpha-1B adrenergic receptor (Homo sapiens, UniProt P35368); assay: Antagonist activity at human adrenergic Alpha-1B receptor assessed as intracellular calcium luminescence by cell based aequorin assay; assay type: functional
T3 sequence (P35368 whole entry): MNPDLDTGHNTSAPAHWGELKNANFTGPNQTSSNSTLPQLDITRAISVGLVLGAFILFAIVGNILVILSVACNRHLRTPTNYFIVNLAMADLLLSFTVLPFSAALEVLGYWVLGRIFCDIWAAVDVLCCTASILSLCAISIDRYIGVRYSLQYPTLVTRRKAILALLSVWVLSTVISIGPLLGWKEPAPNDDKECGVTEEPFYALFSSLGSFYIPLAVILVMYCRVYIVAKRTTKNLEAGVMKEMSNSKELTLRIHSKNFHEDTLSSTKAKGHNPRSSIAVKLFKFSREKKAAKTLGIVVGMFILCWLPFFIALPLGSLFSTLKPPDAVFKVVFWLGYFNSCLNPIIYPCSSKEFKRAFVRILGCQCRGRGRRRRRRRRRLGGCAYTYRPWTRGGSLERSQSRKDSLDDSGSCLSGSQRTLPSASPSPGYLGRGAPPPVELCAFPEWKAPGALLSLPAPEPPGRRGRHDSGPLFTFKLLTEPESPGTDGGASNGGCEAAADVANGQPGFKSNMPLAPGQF

Chain of 5-hydroxytryptamine receptor 2B (P41595 whole entry): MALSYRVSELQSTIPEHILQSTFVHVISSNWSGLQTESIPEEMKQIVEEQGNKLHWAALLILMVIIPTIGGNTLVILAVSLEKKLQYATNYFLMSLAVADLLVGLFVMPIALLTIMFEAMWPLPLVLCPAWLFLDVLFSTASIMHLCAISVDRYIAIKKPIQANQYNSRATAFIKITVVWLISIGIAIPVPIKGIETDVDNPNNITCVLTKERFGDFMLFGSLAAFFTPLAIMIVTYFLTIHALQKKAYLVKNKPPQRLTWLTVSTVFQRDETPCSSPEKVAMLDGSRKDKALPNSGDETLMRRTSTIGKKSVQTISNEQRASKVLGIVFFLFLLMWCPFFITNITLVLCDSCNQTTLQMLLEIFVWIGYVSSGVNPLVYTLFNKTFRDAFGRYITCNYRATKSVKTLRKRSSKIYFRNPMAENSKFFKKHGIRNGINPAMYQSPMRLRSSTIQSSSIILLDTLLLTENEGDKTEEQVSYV
Chain of 5-hydroxytryptamine receptor 2A (P28223 whole entry): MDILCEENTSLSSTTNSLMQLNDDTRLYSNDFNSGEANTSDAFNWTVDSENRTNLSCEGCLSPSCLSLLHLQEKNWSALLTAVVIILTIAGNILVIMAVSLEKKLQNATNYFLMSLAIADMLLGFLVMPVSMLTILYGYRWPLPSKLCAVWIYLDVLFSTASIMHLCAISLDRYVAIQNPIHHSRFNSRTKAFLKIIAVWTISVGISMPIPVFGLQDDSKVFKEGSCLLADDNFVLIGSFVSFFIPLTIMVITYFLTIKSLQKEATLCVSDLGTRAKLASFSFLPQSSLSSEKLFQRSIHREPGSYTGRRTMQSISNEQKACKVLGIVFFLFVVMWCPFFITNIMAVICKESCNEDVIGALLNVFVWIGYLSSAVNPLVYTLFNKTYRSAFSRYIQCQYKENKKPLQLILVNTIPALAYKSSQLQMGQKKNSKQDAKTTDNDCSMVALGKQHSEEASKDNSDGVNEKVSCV
Chain of Histamine H1 receptor (P35367 whole entry): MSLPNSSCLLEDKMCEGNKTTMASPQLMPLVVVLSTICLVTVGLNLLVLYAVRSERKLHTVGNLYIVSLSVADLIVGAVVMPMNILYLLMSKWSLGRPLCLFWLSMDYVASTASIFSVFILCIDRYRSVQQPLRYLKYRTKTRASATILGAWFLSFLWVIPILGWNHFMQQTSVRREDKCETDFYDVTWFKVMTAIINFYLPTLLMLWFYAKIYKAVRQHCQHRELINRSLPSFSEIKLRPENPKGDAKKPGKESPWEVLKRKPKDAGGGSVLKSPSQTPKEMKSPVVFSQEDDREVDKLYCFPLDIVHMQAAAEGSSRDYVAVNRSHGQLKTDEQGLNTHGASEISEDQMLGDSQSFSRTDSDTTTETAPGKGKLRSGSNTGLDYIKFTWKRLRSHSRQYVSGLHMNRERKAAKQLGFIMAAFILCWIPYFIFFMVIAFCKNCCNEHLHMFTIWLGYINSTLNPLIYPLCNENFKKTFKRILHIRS

SMILES: CC(C)(CN1CCN(C2=Cc3ccccc3Cn3cc(Cl)nc32)CC1)C(=O)O
- Ki [1]: 100 nM

SMILES: C=C(CN1CCN(C2=Cc3ccccc3Cn3ccnc32)CC1)C(=O)O
- Ki [2]: 200 nM
- Ki [3]: 501 nM
- Ki [1]: > 794 nM
- Ki (Histamine H1 receptor): 31.6 nM

SMILES: Cc1nc2n(c1C)Cc1ccccc1C=C2N1CCN(CC(C)(C)C(=O)O)CC1
- Ki [2]: 398 nM
- Ki [3]: 63.1 nM
- Ki [1]: 15.8 nM
- Ki (Histamine H1 receptor): 39.8 nM

SMILES: O=C(O)CCN1CCN(C2=Cc3ccccc3Cn3ccnc32)CC1
- Ki [2]: 316 nM
- Ki [3]: > 794 nM
- Ki [1]: > 794 nM
- Ki (Histamine H1 receptor): 50.1 nM

SMILES: CC(C)(CN1CCN(C2=Cc3ccccc3Cn3cc(F)nc32)CC1)C(=O)O
- Kp [4]: 0.04
- Ki [2]: 100 nM
- Vd [5]: 1.1 L/kg
- bioavailability [6]: 45%
- fraction unbound [7]: 0.4
- fraction unbound [8]: 0.45
- half-life [9]: 1.8 h
- Ki [3]: 316 nM
- clearance [10]: 10 mL/min/kg
- Ki [1]: 316 nM
- Ki (Histamine H1 receptor): 39.8 nM

SMILES: O=C(O)C1CC(N2CCN(C3=Cc4ccccc4Cn4ccnc43)CC2)C1 (stereo in doubt; 13)
- Ki [2]: > 794 nM
- Ki [3]: > 794 nM
- Ki [1]: > 794 nM
- Ki (Histamine H1 receptor): 12.6 nM

SMILES: O=C(O)C1CCC(N2CCN(C3=Cc4ccccc4Cn4ccnc43)CC2)CC1 (single isomer, unassigned; isomer 1)
- Ki [2]: 631 nM
- Ki [3]: > 2000 nM
- Ki [1]: 39.8 nM
- Ki (Histamine H1 receptor): 126 nM

SMILES: O=C(O)C1CC(N2CCN(C3=Cc4ccccc4Cn4ccnc43)CC2)C1 (single isomer, unassigned; isomer 2)
- pKi ([2]; hek293): < 6.1
- pKi [3]: < 6.1
- pKi ([1]; sh-sy5y): < 6.1
- Ki (Histamine H1 receptor): 25.1 nM

SMILES: COc1cnc2n1Cc1ccccc1C=C2N1CCN(CC(C)(C)C(=O)O)CC1
- Ki [2]: 251 nM
- Ki [3]: 501 nM
- Ki [1]: 158 nM
- Ki (Histamine H1 receptor): 126 nM

SMILES: CC1CN(C2=Cc3ccccc3Cn3ccnc32)CC(C)N1CCC(=O)O (stereo not drawn)
- Ki [2]: 39.8 nM
- Ki [3]: 158 nM
- Ki [1]: 631 nM
- Ki (Histamine H1 receptor): 20 nM

SMILES: CC(C)(CN1CCN(C2=Cc3ccccc3Cn3ccnc32)CC1)C(=O)O
- Ki [2]: 79.4 nM
- bioavailability [11]: 61%
- Vd [12]: 1.9 L/kg
- fraction unbound [7]: > 0.5
- fraction unbound [8]: > 0.5
- half-life [13]: 0.7 h
- Ki [3]: 50.1 nM
- Ki [1]: 1580 nM
- clearance [14]: 38 mL/min/kg
- Kp [15]: 0.02
- Ki (Histamine H1 receptor): 25.1 nM

SMILES: CC(C)(CN1CCCN(C2=Cc3ccccc3Cn3ccnc32)CC1)C(=O)O
- Ki [2]: > 5010 nM
- Ki [3]: > 2000 nM
- Ki [1]: > 2000 nM
- Ki (Histamine H1 receptor): 50.1 nM

SMILES: O=C(O)C1CCC(N2CCN(C3=Cc4ccccc4Cn4ccnc43)CC2)CC1 (stereo in doubt; 16)
- Ki [2]: 501 nM
- pKi [3]: < 5.7
- Ki [1]: 25.1 nM
- Ki (Histamine H1 receptor): 63.1 nM

SMILES: C1=C(N2CCNCC2)c2nccn2Cc2ccccc21
- Ki [2]: 7.94 nM
- Ki [3]: 20 nM
- Ki [16]: 3.98 nM
- Ki [17]: 3.16 nM
- Ki [1]: 316 nM
- Ki (Histamine H1 receptor): 0.631 nM

SMILES: Cc1cn2c(n1)C(N1CCN(CC(C)(C)C(=O)O)CC1)=Cc1ccccc1C2
- Ki [2]: 126 nM
- Ki [3]: 31.6 nM
- Ki [1]: 63.1 nM
- Ki (Histamine H1 receptor): 50.1 nM
